{
  "source": "patent US10471030B2",
  "about": "“Immunomodulatory and differentiating function selective retinoid and rexinoid compounds in combination with immune modulators for cancer immunotherapy” (Io Therapeutics, Inc., priority 2017, dated 2019)",
  "key": {"[1]": {"tested_on": "MM cells", "test": "surface CD138 expression of MM cells (flow cytometry)", "type": "cell-based, human", "conditions": "BM stromal cell co-cultures, 1 μM", "method": "(§1) 24-well plates were coated with 0.1% gelatin in PBS for 30 min at 37° C. The gelatin solution was removed, and the stromal cells were cultured overnight at a density of 5×10^4 cells/well to obtain a confluent monolayer. At that time, MM cell lines or primary MM cells (1×10^5 in 2 ml) were added to the stroma cultures. The stroma cocultures were incubated at 37° C. in RPMI containing 10% FCS, L-glutamine, and P/S, with or without AGN194310 (1 μM for 5 days), R115866 (1 μM for 5 days), IRX5183 (1 μM for 5 days), or BTZ (2.5 nM for 48 hr).\nFollowing treatment, MM cells were collected, washed with PBS, and stained for 15 min at room temperature with phycoerythrin-conjugated (PE-conjugated) anti-CD138. Cells were washed to remove unbound antibody and evaluated in a FACSCalibur system (BD Biosciences). Stromal cells were identified by GFP expression, and viable cells were identified using 7-aminoactinomycin D (7-AAD). To calculate cell numbers, live GFP-cells were normalized to calibration beads.\nExpression of CD138 is a hallmark of normal PC differentiation as well MM PCs."}, "[2]": {"tested_on": "RARα", "test": "transactivation assay, agonist activity", "type": "cell-based", "conditions": "RARα versus RARβ, RARγ; FIG. 1", "description": "Transactivation assays employ expression plasmids encoding the full length receptors RARα, RARβ, and RAR ? . Reporter plasmids containing the herpes virus thymidine kinase promoter and the appropriate retinoic acid receptor response element (RAREs) are positioned upstream of an open coding region encoding firefly luciferase."}, "[3]": {"tested_on": "Kasumi-1 cells", "test": "CFU experiments off and on stroma, Kasumi-1 cells", "type": "cell-based", "conditions": "10^−6 M ATRA, IRX5183, or 10^−7 M AM80", "text": "Data across three independent experiments."}, "[4]": {"tested_on": "H929 luciferase+ (Luc+) cells", "test": "systemic MM xenograft, bioluminescence", "type": "in vivo, NSG mice", "conditions": "4 weeks", "method": "For the systemic MM model, 2×10^6 Luc+/GFP+ H929 cells were injected via the tail vein into 16-week-old male NSG mice. After engraftment, as determined by an exponential increase in bioluminescence, mice were treated with BTZ (0.5 mg/kg i.p.) twice weekly and with IRX (10 mg/kg) once daily. Tumor burden was assessed by bioluminescence, as above.\nTo test whether retinoids can enhance BTZ activity in MM, a systemic MM xenograft was developed by injecting 2×10^6 H929 luciferase+ (Luc+) cells via the tail vein of non-obese, diabetic, severe combined immunodeficiency IL-2 receptor γ-KO (NSG) mice. The animals were randomized to receive IRX, BTZ, or a combination of both, and disease burden was followed weekly by bioluminescence imaging (FIG. 6)."}, "[5]": {"tested_on": "MM H929 cell lines and MM CD138+ primary cells", "test": "mRNA expression of B cell and PC markers in MM cells, liquid or BM stroma co-culture (qRT-PCR)", "type": "cell-based, human", "conditions": "1 μM for 5 days", "method": "as §1\nTotal RNA was extracted using the RNeasy Mini Kit (QIAGEN) according to the manufacturer's instructions. cDNA was synthesized by reverse transcription using the iScript cDNA Synthesis Kit (Bio-Rad). qRT-PCR was performed with iTaq SYBR Green Supermix (Bio-Rad) using sequence specific primers. Gene expression was normalized to GAPDH, and relative quantification was calculated using ΔΔCt. All experiments were performed in duplicate and run on the Bio-Rad CFX96 machine.\nThe BM microenvironment (also called “niche”) limits PC differentiation by modulating retinoid signaling. A population of MM progenitors, phenotypically similar to B cells, is intrinsically resistant to BTZ and contributes to MRD and relapse. To investigate whether the BM niche plays a role in determining the phenotype of MM cells, the mRNA expression of B cell and PC markers in MM H929 cell lines (FIGS. 3A-D) and MM CD138+ primary cells (FIGS. 3E-H) was analyzed following co-culture with mouse BM stroma using human-specific primers. […] In contrast, co-culture of MM cells with BM stroma decreased the mRNA expression of B lymphocyte-induced maturation protein 1 (BLIMP1) and spliced X box-binding protein 1 (XBP1s) (FIG. 3B, C, F, G), which are critical mediators of PC differentiation.\nThe BM niche regulates hematopoietic stem cell (HSC) differentiation by expressing the retinoid-inactivating enzyme CYP26. CYP26 enzymes were highly expressed in BM mesenchymal cells, while their expression was barely detectable in MM cells. Since retinoid signaling promotes PC differentiation and potentiates Ig secretion, it was determined whether stromal CYP26 is responsible for inducing a B cell phenotype in MM cells. To this end, co-culture conditions were treated with the CYP26 inhibitor R115866 (R115) or the CYP26-resistant RA receptor α-selective (RARα-selective) retinoid IRX5183 (IRX)."}},
  "data": [
    {"smiles": "CC1(C)CCC(C)(C)c2c1cc(C(=O)Nc1cc(F)c(C(=O)O)c(F)c1)c(O)c2Cl", "note": "[IRX5183]", "values": [
      {"measurement": "surface CD138 expression", "setting": "[1]", "result": "restored CD138 expression"},
      {"measurement": "agonist activity, activation of transcription", "setting": "[2]", "result": "specifically activates RARα"},
      {"measurement": "clonogenic growth (CFU)", "setting": "[3]", "result": "decrease in clonogenic growth compared to control"},
      {"measurement": "disease burden (bioluminescence)", "setting": "[4]; IRX in combination with BTZ", "result": "significant (P<0.01) decrease in disease burden"},
      {"measurement": "tumor burden (bioluminescence)", "setting": "[4]; monotherapy, BTZ 0.5 mg/kg i.p. twice weekly, IRX 10 mg/kg once daily", "result": "decrease in tumor burden compared with untreated mice"},
      {"measurement": "mRNA expression of BCL6, BLIMP1, XBP1s, CHOP markers", "setting": "[5]; BM stroma co-cultures", "result": "restored all markers to levels comparable to those of liquid control conditions"},
      {"measurement": "expression of differentiation markers", "setting": "[5]; liquid conditions (absence of stroma)", "result": "induced comparable changes, irrespective of the presence or absence of BM stroma"}
    ]}
  ]
}
